Experimental findings from ChEMBL document CHEMBL1157299, “Alkaloids from Eschscholzia californica and their capacity to inhibit binding of [3H]8-Hydroxy-2-(di-N-propylamino)tetralin to 5-HT1A receptors in Vitro” (J Nat Prod, 2006) are described below.

pEC50, pIC50, pKi: −log10 of the molar value. The source made the active and inactive calls. The rule behind the calls is not given here. Where a SMILES comes first, the peptide text is derived from it. [ ]: non-standard residue; d: D form.

The target in assay [1] is Substance-P receptor (Homo sapiens, UniProt P25103). Put plainly: Displacement of [3H]SR140333 from human recombinant NK1 receptor expressed in CHO cells. Format: cell-based. (In general: In a radioligand displacement assay an active substance lowers the binding of a labelled ligand.)
Assay [2] addresses T1, 5-hydroxytryptamine receptor 1A (Homo sapiens, UniProt P08908).
T1 sequence (P08908 whole entry): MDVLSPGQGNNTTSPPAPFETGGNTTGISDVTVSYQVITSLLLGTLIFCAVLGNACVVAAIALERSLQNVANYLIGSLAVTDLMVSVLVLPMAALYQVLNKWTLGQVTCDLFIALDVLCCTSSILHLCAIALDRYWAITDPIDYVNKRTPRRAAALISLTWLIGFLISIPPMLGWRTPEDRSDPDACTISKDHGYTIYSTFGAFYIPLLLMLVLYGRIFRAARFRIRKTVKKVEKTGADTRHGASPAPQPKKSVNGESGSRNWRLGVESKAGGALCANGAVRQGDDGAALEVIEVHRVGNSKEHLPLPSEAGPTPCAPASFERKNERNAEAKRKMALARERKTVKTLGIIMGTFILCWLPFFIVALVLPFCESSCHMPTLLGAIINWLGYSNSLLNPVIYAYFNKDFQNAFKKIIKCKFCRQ
Nature of the assay: (§1) Displacement of [3H]8-OH-DPAT from human recombinant 5HT1A receptor expressed in CHO cells. Format: cell-based.

Assay [3] addresses T2, 5-hydroxytryptamine receptor 1A (Homo sapiens) (UniProt P08908).
T2 sequence (whole entry): T1 sequence (P08908 whole entry)
The assay is described as §1. Format: cell-based.

In assay [4] the target is T3, Substance-K receptor (Homo sapiens, UniProt P21452).
T3 sequence (P21452 whole entry): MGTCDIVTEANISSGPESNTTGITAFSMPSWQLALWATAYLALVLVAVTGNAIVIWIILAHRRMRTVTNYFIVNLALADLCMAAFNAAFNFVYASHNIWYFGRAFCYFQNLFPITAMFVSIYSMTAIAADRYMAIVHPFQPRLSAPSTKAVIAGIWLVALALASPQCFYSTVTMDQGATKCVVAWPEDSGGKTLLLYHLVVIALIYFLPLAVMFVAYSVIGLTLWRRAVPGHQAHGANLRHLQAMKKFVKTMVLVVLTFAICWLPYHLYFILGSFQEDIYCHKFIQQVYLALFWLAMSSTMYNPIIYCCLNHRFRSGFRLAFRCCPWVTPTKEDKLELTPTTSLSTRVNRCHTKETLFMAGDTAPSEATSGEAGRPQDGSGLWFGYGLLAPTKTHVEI
Nature of the assay: Displacement of [3H]SR48968 from human recombinant NK2 receptor expressed in CHO cells. Format: cell-based.

For assay [5], the target named is Cytochrome P450 3A4 (Homo sapiens, UniProt P08684).
Chain of Cytochrome P450 3A4 (P08684 whole entry): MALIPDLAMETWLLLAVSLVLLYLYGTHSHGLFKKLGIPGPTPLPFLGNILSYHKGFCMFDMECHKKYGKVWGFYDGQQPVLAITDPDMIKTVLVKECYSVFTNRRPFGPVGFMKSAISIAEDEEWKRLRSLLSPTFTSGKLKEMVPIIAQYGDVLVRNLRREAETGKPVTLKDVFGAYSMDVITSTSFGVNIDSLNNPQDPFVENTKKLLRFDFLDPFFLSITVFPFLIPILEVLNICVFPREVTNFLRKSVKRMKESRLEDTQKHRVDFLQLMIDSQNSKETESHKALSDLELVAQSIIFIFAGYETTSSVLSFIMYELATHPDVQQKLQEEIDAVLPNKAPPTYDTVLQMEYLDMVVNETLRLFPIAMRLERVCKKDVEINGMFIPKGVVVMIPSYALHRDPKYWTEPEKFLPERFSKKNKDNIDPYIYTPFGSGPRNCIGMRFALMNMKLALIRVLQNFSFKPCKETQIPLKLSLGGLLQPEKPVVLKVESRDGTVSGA

Chain of Substance-P receptor (P25103 whole entry): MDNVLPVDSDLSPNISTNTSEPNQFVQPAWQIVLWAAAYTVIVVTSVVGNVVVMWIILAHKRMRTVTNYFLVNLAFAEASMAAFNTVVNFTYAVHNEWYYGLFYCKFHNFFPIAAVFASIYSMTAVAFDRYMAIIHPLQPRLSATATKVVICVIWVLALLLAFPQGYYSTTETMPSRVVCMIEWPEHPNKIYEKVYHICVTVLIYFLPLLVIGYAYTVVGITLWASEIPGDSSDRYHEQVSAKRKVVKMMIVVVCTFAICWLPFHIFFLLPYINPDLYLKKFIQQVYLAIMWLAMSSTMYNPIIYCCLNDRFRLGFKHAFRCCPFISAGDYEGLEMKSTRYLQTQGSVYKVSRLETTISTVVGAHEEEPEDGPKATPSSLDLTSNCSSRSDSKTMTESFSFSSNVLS

`Ic1ccccc1CN[C@@H]1C2CCN(CC2)[C@@H]1C(c1ccccc1)c1ccccc1` (relative stereo): in assay [1], the pEC50 (as a rule, the negative decadic logarithm of the EC50, by convention in mol/L) was 7.61.

For the molecule `COc1cc2c(cc1O)C[C@H]1c3c(cc(OC)c(OC)c3-2)CCN1C`, in assay [2], the pEC50 is 6.80 and the pKi – broadly, the Ki on a negative log10 scale, so that one unit is a factor of ten – was 7.07.

In the case of `COc1cc2c(cc1O)[C@@H]1Cc3cc4c(cc3[C@H](C2)N1C)OCO4` [CARYACHINE], in assay [3], the Activity turned out to be 5 µM. The pEC50 in assay [2] was 5.05.

In the case of `CN1[C@H]2Cc3cc4c(cc3[C@@H]1Cc1cc3c(cc12)OCO3)OCO4` [ESCHOLTZINE], in assay [2], the pEC50 was 4.96 and the negative-log Ki (pKi) is 5.22.

For `O=c1c(O)c(-c2ccc(O)c(O)c2)oc2cc(O)cc(O)c12` [QUERCETIN], in assay [3], the outcome was inactive. Moreover, the pEC50 in assay [2] was less than 4.00.

As for `CC(C)[C@H](NC(=O)[C@@H](Cc1c[nH]c2ccccc12)NC(=O)[C@H](Cc1ccc(O)cc1)NC(=O)[C@@H](N)CC(=O)O)C(=O)N[C@H](Cc1c[nH]c2ccccc12)C(=O)N[C@H](Cc1c[nH]c2ccccc12)C(=O)N[C@@H](CCCCN)C(N)=O` (H-DY[dW]V[dW][dW]K-NH2), the pEC50 in assay [4] is 7.11.

On to `C[N+]1(C)[C@H]2Cc3cc4c(cc3[C@@H]1Cc1cc3c(cc12)COC3)OCO4` [CALIFORNIDINE], for which the outcome in assay [3] was inactive. Also, the pEC50 in assay [2] is less than 4.00. In assay [5], the pIC50 (commonly −log10 of the IC50, conventionally taken in molar units) is less than 4.10.

As for `COc1cc(-c2oc3cc(O)cc(O)c3c(=O)c2O[C@@H]2O[C@H](CO[C@@H]3O[C@@H](C)[C@H](O)[C@@H](O)[C@H]3O)[C@@H](O)[C@H](O)[C@H]2O)ccc1O` [NARCISSIN], in assay [5], the pIC50 was less than 4.10.

For the molecule `CN1CCc2cc3c(cc2C(=O)Cc2ccc4c(c2C1)OCO4)OCO3` [PROTOPINE], in assay [2], the pEC50 was less than 4.00. In addition, in assay [5], the pIC50 was less than 4.10.
